14 compounds from patent US9428549B2, “Derivatives of N-urea substituted amino acids as formyl peptide receptor modulators” (Allergan, Inc., priority 2013, dated 2016) can be followed below.

Several values for one entry are separate records, joined by “and”; a condition that tells them apart may be missing. Equal values may be shown once.

The test concerns the target T1, FPR2 (Homo sapiens, UniProt P25090).
T1 construct: expressed in transfected cells
T1 sequence (P25090 1-351): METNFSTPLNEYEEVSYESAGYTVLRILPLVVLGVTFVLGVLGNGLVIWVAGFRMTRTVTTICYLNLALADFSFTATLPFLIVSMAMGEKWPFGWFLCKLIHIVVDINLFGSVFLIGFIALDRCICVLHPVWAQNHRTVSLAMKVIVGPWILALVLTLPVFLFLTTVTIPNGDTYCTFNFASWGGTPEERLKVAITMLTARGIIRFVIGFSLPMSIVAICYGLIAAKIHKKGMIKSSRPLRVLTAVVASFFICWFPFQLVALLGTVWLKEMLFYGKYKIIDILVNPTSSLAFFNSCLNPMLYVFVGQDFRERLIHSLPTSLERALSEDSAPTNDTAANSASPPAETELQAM
Nature of the test: Compound-induced calcium activity on FLIPR Tetra in CHO-Gα16 cells stably expressing FPRL1. In kind it is cell-based. As to conditions: for FPR2 Ga16-CHO (Rel. eff.): relative efficacy; for EC50: tested 0.61 to 10,000 nM, read-out: FPR2 Ga16-CHO EC50. The protocol:
CHO-Gα16 cells stably expressing FPRL1 were cultured in (F12, 10% FBS, 1% PSA, 400 μg/ml geneticin and 50 μg/ml hygromycin) and HEK-Gqi5 cells stable expressing FPR1 were cultured in (DMEM high glucose, 10% FBS, 1% PSA, 400 μg/ml geneticin and 50 μg/ml hygromycin). In general, the day before the experiment, 18,000 cells/well were plated in a 384-well clear bottom poly-d-lysine coated plate. The following day the screening compound-induced calcium activity was assayed on the FLIPR^Tetra. The drug plates were prepared in 384-well microplates using the EP3 and the MultiPROBE robotic liquid handling systems. Compounds were tested at concentrations ranging from 0.61 to 10,000 nM. Results are expressed as EC50 (nM) and efficacy values.

As usually defined, the EC50 is the concentration that produces a half-maximal response. On to `CC(C)C[C@H](NC(=O)Nc1ccc(Br)cc1)C(=O)N(C)CC(=O)OC(C)(C)C` [Compound 1, tert-Butyl{[(2S)-2-{[(4-Bromophenyl)carbamoyl]amino}-4-methylpentanoyl](methyl)amino}acetate], for which the “FPR2 Ga16-CHO (Rel. eff.)” value is “(0.85)” and the EC50 is 11.8 nM.
The matching figures for `CC(C)C[C@H](NC(=O)Nc1ccc(C(F)(F)F)cc1)C(=O)N(C)CC(=O)OC(C)(C)C` [Compound 2, tert-Butyl {Methyl[(2S)-4-methyl-2-({[4-(trifluoromethyl)phenyl]carbamoyl}amino)pentanoyl]amino}acetate]: “(1.02)” and 995 nM.
The corresponding values for `CC(C)C[C@H](NC(=O)Nc1ccc(Br)cc1)C(=O)N(CC(=O)OC(C)(C)C)C(C)C` [Compound 3, tert-Butyl {[(2S)-2-{[(4-Bromophenyl)carbamoyl]amino}-4-methylpentanoyl](propan-2-yl)amino}acetate] are “(1.06)” and 163 nM.
The corresponding values for `CCCN(CC(=O)OC(C)(C)C)C(=O)[C@H](CC(C)C)NC(=O)Nc1ccc(Br)cc1` [Compound 4, tert-Butyl {[(2S)-2-{[(4-Bromophenyl)carbamoyl]amino}-4-methylpentanoyl](propyl)amino}acetate] are “(1.04)” and 0.29 nM.
As to `CCCN(CC(=O)OC(C)(C)C)C(=O)[C@H](CC(C)C)NC(=O)Nc1ccc(C(F)(F)F)cc1` [Compound 5, tert-Butyl {[(2S)-4-Methyl-2-({[4-(trifluoromethyl)phenyl]carbamoyl}amino)pentanoyl](propyl)amino}acetate], the “FPR2 Ga16-CHO (Rel. eff.)” value is “(0.95)” and the half-maximal effective concentration (EC50) was 434 nM.
`CCN(CC(=O)OC(C)(C)C)C(=O)[C@H](CC(C)C)NC(=O)Nc1ccc(Br)cc1` [Compound 6, tert-Butyl {[(2S)-2-{[(4-bromophenyl)carbamoyl]amino}-4-methylpentanoyl](ethyl)amino}acetate]: the “FPR2 Ga16-CHO (Rel. eff.)” value is “(0.50)” and the EC50 came to 1970 nM.
As to `CCN(CC(=O)OC(C)(C)C)C(=O)[C@H](CC(C)C)NC(=O)Nc1ccc(C(F)(F)F)cc1` [Compound 7, tert-Butyl {Ethyl[(2S)-4-methyl-2-({[4-(trifluoromethyl)phenyl]carbamoyl}amino)pentanoyl]amino}acetate], the “FPR2 Ga16-CHO (Rel. eff.)” value is reported as “(0.91)” and the concentration giving a half-maximal response (EC50) was determined as 17 nM.
The corresponding values for `CC(C)C[C@H](NC(=O)Nc1ccc(Br)cc1)C(=O)N(C)CC(=O)O` [Compound 8, {[(2S)-2-{[(4-bromophenyl)carbamoyl]amino}-4-methylpentanoyl](methyl)amino}acetic acid] are “(1.00)” and below 1 nM.
The matching figures for `CC(C)C[C@H](NC(=O)Nc1ccc(C(F)(F)F)cc1)C(=O)N(C)CC(=O)O` [Compound 9, {Methyl[(2S)-4-Methyl-2-({[4-(trifluoromethyl)phenyl]carbamoyl}amino)pentanoyl]amino}acetic acid]: “(1.02)” and 0.41 nM.
The corresponding values for `CC(C)C[C@H](NC(=O)Nc1ccc(Br)cc1)C(=O)N(CC(=O)O)C(C)C` [Compound 10, {[(2S)-2-{[(4-Bromophenyl)carbamoyl]amino}-4-methylpentanoyl](propan-2-yl)amino}acetic acid] are “(0.97)” and 0.24 nM.
In the case of `CC(C)C[C@H](NC(=O)Nc1ccc(C(F)(F)F)cc1)C(=O)N(CC(=O)O)C(C)C` [Compound 11, {[(2S)-4-Methyl-2-({[4-(trifluoromethyl)phenyl]carbamoyl}amino)pentanoyl](propan-2-yl)amino}acetic acid], the “FPR2 Ga16-CHO (Rel. eff.)” value was “(0.75)” and the concentration for a half-maximal effect (EC50) stood at 1730 nM.
The matching figures for `CCCN(CC(=O)O)C(=O)[C@H](CC(C)C)NC(=O)Nc1ccc(C(F)(F)F)cc1` [Compound 13, {[(2S)-4-Methyl-2-({[4-(trifluoromethyl)phenyl]carbamoyl}amino)pentanoyl](propyl)amino}acetic acid]: “(1.04)” and below 1 nM.
`CCN(CC(=O)O)C(=O)[C@H](CC(C)C)NC(=O)Nc1ccc(Br)cc1` [Compound 14, {[(2S)-2-{[(4-Bromophenyl)carbamoyl]amino}-4-methylpentanoyl](ethyl)amino}acetic acid]: the “FPR2 Ga16-CHO (Rel. eff.)” value is on record as “(0.99)” and the EC50 turned out to be 0.13 nM.
With `CCN(CC(=O)O)C(=O)[C@H](CC(C)C)NC(=O)Nc1ccc(C(F)(F)F)cc1` [Compound 15, {Ethyl[(2S)-4-Methyl-2-({[4-(trifluoromethyl)phenyl]carbamoyl}amino)pentanoyl]amino}acetic acid], the EC50 was 0.32 nM and 1.85 nM. The “FPR2 Ga16-CHO (Rel. eff.)” value (listed as {Ethyl[(2S)-4-Methyl-2-({[4-(trifluoromethyl)phenyl]carbamoyl}amino)pentanoyl]am) is recorded as “(0.85)”. Further, for the setting “listed as {Ethyl[(2S)-4-methyl-2-({[4-(trifluoromethyl)phenyl]carbamoyl}amino)pentanoyl]am”, the “FPR2 Ga16-CHO (Rel. eff.)” value is “(1.02)”.
